Measurements reported in patent US9969775B2, “CGRP antagonist peptides” (Ferring B.V., priority 2015, dated 2018).
Numbered stars: 1 amine (or outer) side, 2 acyl side, 3 side chain; on linkers, the order of the positions; unused ones are H or OH. Bridge positions count the residues as written; N and C are the ends. Square brackets hold non-standard residues; d marks the D form. Peptide text beside a SMILES is read from it. * marks the point of attachment. Phe(3-CONH2) = NC(=O)c1cccc(C[C@H](N)C(=O)O)c1; Phe(2-CONH2) = NC(=O)c1ccccc1C[C@H](N)C(=O)O; X5 = O=C([C@H](Cc1ccc(CO)cc1)N[*:1])[*:2]; Orn(iPr) = CC(C)NCCC[C@H](N)C(=O)O; Benzoyl(4-F) = O=C(c1ccc(F)cc1)*; Oxazole2carbonyl = O=C(c1ncco1)*; 3Pal = N[C@@H](Cc1cccnc1)C(=O)O; X4 = O=C(c1ncccc1[N+](=O)[O-])*; Picolinoyl = O=C(c1ccccn1)*; ΔPro = O=C(O)[C@@H]1C=CCN1; Dap = NC[C@H](N)C(=O)O

Experiments:
[1] = target: T1, hCGRP receptor (CALCRL:RAMP1) (Homo sapiens, UniProt O60894+Q16602); assay: CGRP receptor antagonist activity measured by cAMP assay (HTRF); format: cell-based; conditions: agonist human α-CGRP; for Emax: % MPE: percent of the maximal possible effect, read-out: hCGRP-R Efficacy Antag (%) Ave; for IC50: GeneBLAzer CALCRL:RAMP1-CRE-bla Freestyle 293F cells, 30 minutes, read-out: hCGRP-R IC50 Ave
T1 construct: host or cells: GeneBLAzer CALCRL:RAMP1-CRE-bla Freestyle 293F
Experimental: Example 6: CGRP Receptor Antagonist Activity Measured by cAMP Assay
CGRP receptor agonists increase intracellular cyclic adenosine mono-phosphate (cAMP). CGRP receptor antagonists can reduce the agonist effect. Antagonist activity was assessed by measurement of cyclic adenosine mono-phosphate (cAMP) using cell line stably expressing the hCGRP receptor (GeneBLAzer® CALCRL:RAMP1-CRE-bla Freestyle™ 293F, Invitrogen). hCGRP receptor expressing cells were maintained in DMEM high-glucose with GlutaMAX™ containing 10% (v/v) FBS, 0.1 mM NEAA, 25 mM HEPES, 5 ug/ml Blasticidin, 100 ug/ml Hygromycin, and 400 ug/ml Geneticin at 37° C. under 5% CO2 in a humidified atmosphere. For cAMP measurement, cells were washed once with 5 ml 1×PBS, cell maintenance media was replaced with compound buffer ((CB): DMEM containing 0.1% BSA and 0.5 mM IBMX), and flasks were incubated for 1 hour at 37° C. under 5% CO2 in a humidified atmosphere. Cells were removed from culture flasks using non-enzymatic cell dissociation buffer and harvested in CB. The reaction was performed in 384 well white small volume plates (Greiner) at a density of 10,000 cells/well. Cells were exposed to varying concentrations of antagonist compounds for 30 minutes in the presence of a fixed concentration of agonist (human α-CGRP). cAMP levels were measured using an HTRF (homogeneous time resolved fluorescence)-based competitive cAMP immunoassay (cAMP Dynamic 2 Kit, Cisbio), according to the manufacturer's instructions. […] Reported parameters include antagonist potency IC50 (the concentration causing half-maximal inhibition of the agonist response for antagonist compounds) and efficacy (% MPE: percent of the maximal possible effect).

[2] = target: T2, hAM2 receptor (CALCRL:RAMP3) (Homo sapiens, UniProt O60896+Q16602); assay: AM2 receptor antagonist activity measured by cAMP assay (HTRF); format: cell-based; conditions: for Emax: % MPE: percent of the maximal possible effect, read-out: hAM2-R Efficacy Antag (%) Ave; for Emax / IC50: agonist human adrenomedullin; for IC50: GeneBLAzer CALCRL:RAMP3-CRE-bla Freestyle 293F cells, read-out: hAM2-R IC50 Ave; for selectivity ratio CGRP/AM2: selectivity ratio for hCGRP over hAM2, calculated from the IC50 values
T2 construct: expressed in transfected cells; host or cells: GeneBLAzer CALCRL:RAMP3-CRE-bla Freestyle 293F
T2 sequence (Q16602 23-461): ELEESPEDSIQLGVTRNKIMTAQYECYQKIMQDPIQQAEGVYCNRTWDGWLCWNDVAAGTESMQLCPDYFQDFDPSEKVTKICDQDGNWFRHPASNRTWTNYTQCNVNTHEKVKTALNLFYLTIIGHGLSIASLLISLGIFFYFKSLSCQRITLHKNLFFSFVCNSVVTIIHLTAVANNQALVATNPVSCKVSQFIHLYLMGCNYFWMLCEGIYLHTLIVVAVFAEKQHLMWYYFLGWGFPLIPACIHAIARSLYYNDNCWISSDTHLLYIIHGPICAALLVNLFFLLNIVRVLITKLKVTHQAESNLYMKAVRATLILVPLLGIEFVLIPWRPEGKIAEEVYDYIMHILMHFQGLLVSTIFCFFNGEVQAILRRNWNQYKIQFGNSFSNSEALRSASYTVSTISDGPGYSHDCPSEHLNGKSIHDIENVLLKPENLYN
T2 sequence (O60896 24-148): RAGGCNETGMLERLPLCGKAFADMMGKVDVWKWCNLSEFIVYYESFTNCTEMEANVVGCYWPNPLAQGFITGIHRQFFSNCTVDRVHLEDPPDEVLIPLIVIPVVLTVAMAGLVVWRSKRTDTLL

T1 sequence (Q16602 23-461): as the sequence (Q16602 23-461) above
T1 sequence (O60894 27-148): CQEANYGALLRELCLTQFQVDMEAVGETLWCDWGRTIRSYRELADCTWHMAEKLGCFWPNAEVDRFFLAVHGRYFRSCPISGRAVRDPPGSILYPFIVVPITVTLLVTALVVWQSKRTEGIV

Row | Emax [1] [%] | IC50 [1] [nM] | Emax [2] [%] | IC50 [2] [nM] | selectivity ratio CGRP/AM2 [2] | Compound
1 | 100 | 0.11 | 98 | 700 | 6628 | CC(C)NCCC[C@@H]1NC(=O)[C@@H](NC(=O)[C@H](Cc2ccccc2C(N)=O)NC(=O)[C@H](NC(=O)c2ncco2)C(C)C)CSSC[C@@H](C(=O)N[C@@H](Cc2cccnc2)C(N)=O)NC(=O)[C@H](Cc2ccccc2)NC(=O)[C@@H]2CCCN2C(=O)CNC(=O)[C@H](C(C)C)NC(=O)[C@H](CC(=O)O)NC1=O [Compound 30, Oxazole-2-carbonyl-D-Val-Phe(2-Cbm)-c(Cys-Orn(iPr)-Asp-Val-Gly-Pro-Phe-Cys)-3Pal-NH2] (Oxazole2carbonyl-[dV][Phe(2-CONH2)]C[Orn(iPr)]DVGPFC[3Pal]-NH2; disulfide 3-10)
2 | 100 | 0.13 | 100 | 43 | 334 | CC(C)[C@@H]1NC(=O)[C@H](CC(=O)O)NC(=O)[C@H](CN)NC(=O)[C@@H](NC(=O)[C@H](Cc2ccc(O)cc2)NC(=O)[C@H](NC(=O)c2ccc(F)cc2)C(C)C)CSSC[C@@H](C(=O)N[C@@H](Cc2cccnc2)C(N)=O)NC(=O)[C@H](Cc2ccc(O)cc2)NC(=O)[C@@H]2CCCN2C(=O)CNC1=O [Compound 7, Bz(4-F)-D-Val-Tyr-c(Cys-Dpr-Asp-Val-Gly-Pro-Tyr-Cys)-3Pal-NH2] ({Benzoyl(4-F)}-[dV]YC[Dap]DVGPYC[3Pal]-NH2; disulfide 3-10)
3 | 101 | 0.06 | 100 | 318 | 5492 | CC(C)NCCC[C@@H]1NC(=O)[C@@H](NC(=O)[C@H](Cc2ccccc2C(N)=O)NC(=O)[C@H](NC(=O)c2ncco2)C(C)C)CSSC[C@@H](C(=O)N[C@@H](Cc2cccnc2)C(N)=O)NC(=O)[C@H](Cc2cccc(C(N)=O)c2)NC(=O)[C@@H]2C=CCN2C(=O)CNC(=O)[C@H](C(C)C)NC(=O)[C@H](CC(=O)O)NC1=O [Compound 65, Oxazole-2-carbonyl-D-Val-Phe(2-Cbm)-c(Cys-Orn(iPr)-Asp-Val-Gly-Dhp-Phe(3-Cbm)-Cys)-3Pal-NH2] (Oxazole2carbonyl-[dV][Phe(2-CONH2)]C[Orn(iPr)]DVG[ΔPro][Phe(3-CONH2)]C[3Pal]-NH2; disulfide 3-10)
4 | 100 | 0.18 | 100 | 137 | 746 | CC(C)NCCC[C@@H]1NC(=O)[C@@H](NC(=O)[C@H](Cc2ccc(O)cc2)NC(=O)[C@H](NC(=O)c2ccccn2)C(C)C)CSSC[C@@H](C(=O)N[C@@H](Cc2cccnc2)C(N)=O)NC(=O)[C@H](Cc2ccc(CO)cc2)NC(=O)[C@@H]2CCCN2C(=O)CNC(=O)[C@H](C(C)C)NC(=O)[C@H](CC(=O)O)NC1=O [Compound 55, Picolinoyl-D-Val-Tyr-c(Cys-Orn(iPr)-Asp-Val-Gly-Pro-Phe(4-CH2OH)-Cys)-3Pal-NH2] (Picolinoyl-[dV]YC[Orn(iPr)]DVGP[X5]C[3Pal]-NH2; disulfide 3-10)
5 | 100 | 0.18 | 99 | 8.1 | 46 | CC(C)[C@@H]1NC(=O)[C@H](CC(=O)O)NC(=O)[C@H](CCCNC(=N)N)NC(=O)[C@@H](NC(=O)[C@H](Cc2ccc(O)cc2)NC(=O)[C@H](NC(=O)c2ncccc2[N+](=O)[O-])C(C)C)CSSC[C@@H](C(=O)N[C@@H](Cc2cccnc2)C(N)=O)NC(=O)[C@H](Cc2ccccc2)NC(=O)[C@@H]2CCCN2C(=O)CNC1=O [Compound 50] (X4-[dV]YCRDVGPFC[3Pal]-NH2; disulfide 3-10)
